Measured values from patent US20100234379A1, “Dual modulation of endocannabinoid transport and fatty-acid amide hydrolase for treatment of excitotoxicity” (priority 2005, published 2010).

Tested on: not given
Experiment: not given
Conditions: not given

**Q.** Which melting point does the source give for Oc1cccc(OCCCC(O)(O)C(F)(F)F)c1 (hydrate or solvate) here?
**A.** Its melting point is 76 to 77 °C.

**Q.** Which melting point does the source give for O=C1c2ccccc2S(=O)(=O)N1CCCCOc1ccc(OCc2ccccc2)cc1 here?
**A.** Its melting point is 82 to 84 °C.

**Q.** Which melting point does the source give for O=S(=O)(F)CCCCOc1ccccc1 here?
**A.** Its melting point is 74 to 76 °C.

**Q.** For O=S(=O)(F)CCCCCCCc1ccc(OCc2ccccc2)cc1, which melting point is on record?
**A.** Its melting point is 35 to 38 °C.

**Q.** With O=C(NCCCc1ccccc1)NCc1ccccn1 as the compound, how does the melting point read?
**A.** Its melting point is 89 to 90 °C.

**Q.** For Cc1nnc(C(=O)CCCCCCOc2ccccc2)o1, which melting point is on record?
**A.** Its melting point is 75 to 77 °C.

**Q.** For O=C(CCCCCCOc1ccc(OCc2ccccc2)cc1)C(F)(F)F, which melting point is on record?
**A.** Its melting point is 82 to 83 °C.

**Q.** With O=C(CCCCCCOc1ccc(O)cc1)C(F)(F)F as the compound, how does the melting point read?
**A.** The melting point was 61 to 62 °C.

**Q.** Which melting point does the source give for Cc1nnc(C(=O)CCCCCCOc2ccc(OCc3ccccc3)cc2)o1 here?
**A.** The melting point was 118 to 120 °C.

**Q.** With O=S(=O)(F)CCCCCc1ccc(OCc2ccccc2)cc1 as the compound, how does the melting point read?
**A.** Its melting point is 66 to 68 °C.

**Q.** With O=C(CCCOc1ccccc1OCc1ccccc1)C(F)(F)F as the compound, how does the melting point read?
**A.** Its melting point is 50 to 51 °C.

**Q.** For O=C(CCCCOc1ccc(O)cc1)C(F)(F)F, which melting point is on record?
**A.** The melting point was 63 to 64 °C.

**Q.** Which melting point does the source give for O=C(CCCCCOc1ccccc1OCc1ccccc1)C(F)(F)F here?
**A.** The melting point was 31 to 32 °C.

**Q.** With COS(=O)(=O)CCCCCCCc1ccc(OCc2ccccc2)cc1 as the compound, how does the melting point read?
**A.** The melting point was 57 to 59 °C.

**Q.** With O=C1c2ccccc2S(=O)(=O)N1CCCCOc1ccc(O)cc1 as the compound, how does the melting point read?
**A.** The melting point was 107 to 109 °C.

**Q.** Which melting point does the source give for O=C(CCCCOc1ccccc1)C(F)(F)F here?
**A.** Its melting point is 50 to 51 °C.

**Q.** Which melting point does the source give for O=C1c2ccccc2S(=O)(=O)N1CCCCOc1ccccc1 here?
**A.** Its melting point is 92 to 94 °C.

**Q.** For O=S(=O)(F)CCCCCCCc1ccc(O)cc1, which melting point is on record?
**A.** Its melting point is 47 to 51 °C.

**Q.** For O=C(CCCCOc1ccccc1O)C(F)(F)F, which melting point is on record?
**A.** The melting point was 51 to 52 °C.

**Q.** With O=S(=O)(F)CCCCCc1ccc(O)cc1 as the compound, how does the melting point read?
**A.** Its melting point is 32 to 35 °C.

**Q.** For O=C(NCCCc1ccccc1)Nc1ccccn1, which melting point is on record?
**A.** Its melting point is 127 to 128 °C.

**Q.** For O=C(CCCCOc1ccc(OCc2ccccc2)cc1)C(F)(F)F, which melting point is on record?
**A.** The melting point was 95.5 to 96 °C.

**Q.** For Cc1nnc(C(=O)CCCCCCOc2ccc(O)cc2)o1, which melting point is on record?
**A.** Its melting point is 134 to 135 °C.

**Q.** For O=C(CCCOc1ccc(OCc2ccccc2)cc1)C(F)(F)F, which melting point is on record?
**A.** The melting point was 59 to 61 °C.

**Q.** Which melting point does the source give for O=C(CCCCCOc1ccc(OCc2ccccc2)cc1)C(F)(F)F here?
**A.** Its melting point is 59 to 60 °C.

Tested on: AMPA-injected dorsal hippocampus of adult Sprague-Dawley rats
Experiment: not given
Format: in vivo, rat
Conditions: co-injected with 63 nmol AMPA; 4-7 days post-injection

**Q.** For CCCCC/C=C\C/C=C\C/C=C\C/C=C\CCCC(=O)N[C@H](C)CO [A, R-methanandamide], which “protection of postsynaptic GluR1 levels (reduction of GluR1 decline), average” value is on record?
**A.** Its value is 58%.

Same assay, conditions: co-injected with 63 nmol AMPA; A 250 nmol; B 0.75 nmol and C 75 nmol

**Q.** With CCCCC/C=C\C/C=C\C/C=C\C/C=C\CCCC(=O)N[C@H](C)CO [A, R-methanandamide] as the compound, how does the “reduction of spectrin BDPN evident 4-7 days post-insult” value read?
**A.** The value was 78%.

Same assay, conditions: co-injected with AMPA, 4-7 days

**Q.** Which “protection of presynaptic markers (synapsin II, synaptophysin)” value does the source give for CCCCC/C=C\C/C=C\C/C=C\C/C=C\CCCC(=O)N[C@H](C)CO [A, R-methanandamide] here?
**A.** The value was “protected by a similar level”.

Tested on: ERK and FAK (pERK2, pFAK)
Experiment: Activation of ERK and FAK (CB1 signaling) in hippocampal slice cultures, immunoblot
Format: cell-based, rat
Conditions: H 10 μM
Procedure: A: Untreated slices were used to determine basal antigen levels (lane 1), while other slices were exposed to the CB1 agonist R-methanandamide (A) in the absence (lane 2) or presence of the antagonist H (lane 3). B: Integrated optical densities for pERK2 (mean±SEM) were determined by image analysis (ANOVA: P=0.014). C: Treatment groups include control slices (lane 1) and slices treated with the FAAH inhibitor B (lane 2), the transporter inhibitor C (lane 3), the B/C combination (lane 4), or B/C with 20 μM F (lane 5). D: Image analysis data for pERK2 are shown (ANOVA: P=0.015).
Hippocampal slice cultures. Sprague-Dawley rats (Charles River Laboratories; Wilmington, Mass.) were housed following guidelines from National Institutes of Health. […] Slices were maintained in culture for a 15-20-day maturation period before experiments were initiated. Activation of extracellular signal regulated-kinase (ERK) and focal adhesion kinase (FAK). […] Other slices were treated with 100-500 nM B, 10-50 μM C, or a combination of the two in the absence or presence of either H or F (Cal-Biochem). […] Integrated optical density of the bands was determined at high resolution with BIOQUANT software (R & M Biometrics, Nashville, Tenn.). […]

**Q.** With Cc1c(C(=O)NN2CCOCC2)nn(-c2ccc(Cl)cc2Cl)c1-c1ccc(I)cc1 [H] as the compound, how does the “prevention of the effects of agonist treatment and of B/C potentiation on ERK/FAK activation by CB1 antagonist” value read?
**A.** The value was “prevented”.

Same assay, conditions: slices treated 30 min; A 10-50 μM; 100 nM B and 10 μM C applied individually; B/C combination

**Q.** With CCCCC/C=C\C/C=C\C/C=C\C/C=C\CCCC(=O)N[C@H](C)CO [A, R-methanandamide] as the compound, how does the “activation of ERK and FAK (pERK2, pFAK over basal levels)” value read?
**A.** Its value is “results in the activation of extracellular signal regulated-kinase (ERK) as well as focal adhesion kinase (FAK)”.

Tested on: hippocampal slice cultures
Experiment: In vitro excitotoxicity: AMPA insult in cultured hippocampal slices, immunoblot for BDPN and GluR1
Conditions: 100 μM AMPA 20 min, drug post-insult, 24 h; B/C 0.5 μM and 50 μM
Procedure: Hippocampal slice cultures were infused with an excitotoxic level of AMPA for 20 min, followed by a 10-min washout period. […] The slices were harvested 24 h post-insult in groups of 6-8 each, along with untreated sister cultures, and assessed by immunoblotting for calpain-mediated spectrin breakdown product BDPN (A, C) and the postsynaptic marker GluR1 (B, D). Representative antigen staining is shown with a protein load control (con) from the same blots. Graphs contain integrated optical densities (mean±SEM) as determined by image analysis.
Chemicals and antibodies. […] Glutamatergic ligands and antagonists were obtained from Tocris (Ellisville, Mo.). […] Hippocampal slice cultures. Sprague-Dawley rats (Charles River Laboratories; Wilmington, Mass.) were housed following guidelines from National Institutes of Health. […] Slices were maintained in culture for a 15-20-day maturation period before experiments were initiated. […] Integrated optical density of the bands was determined at high resolution with BIOQUANT software (R & M Biometrics, Nashville, Tenn.). […] At such time, slices were rapidly harvested, homogenized in lysis buffer, and analyzed by immunoblot for BDPN, GluR1, and protein load control.

**Q.** With CCCCC/C=C\C/C=C\C/C=C\C/C=C\CCCC(=O)N[C@H](C)CO [A, R-methanandamide] as the compound, how does the “reduction of cytoskeletal damage (calpain-mediated spectrin breakdown product BDPN)” value read?
**A.** The value was 72%.
